Assay results taken from patent US9790215B2 (FLATLEY DISCOVERY LAB, LLC, priority 2013, dated 2017).

What follows are compounds tested against T1, human ΔF508-CFTR (Homo sapiens, UniProt P13569, DEL508-508) (assay: CFTR-YFP High Throughput Assay (YFP halide flux in FRT cells)). Conditions: FRT cells expressing human ΔF508-CFTR and YFP; Emax normalized to the positive control.
T1 construct: expressed in transfected cells
Assay type: cell-based
Protocol: Assays for Detecting and Measuring the Effect of Compounds on dF508-CFTR Channels CFRT-YFP High Throughput Assay:
The following protocol is designed to selectively screen small molecule compounds for F508del CFTR corrector activities in the HTS YFP flux assay. In this protocol, the cells are incubated with testing compounds for 24 hours, washed with PBS, stimulated with forskolin and a standard potentiator, and read on a 384-well HTS plate reader, such as the Hamamatsu FDDD-6000.
(§1) YFP fluorescence intensity is acquired at high speed before and after iodide buffer is injected to the assay cells. Iodide enters the cells via active CFTR channels in the plasma membrane, and quenches the YFP fluorescence. The rate of fluorescence quenching is proportionally related to the total CFTR activities in the cell membrane. dF508-CFTR corrector accelerates YFP quenching by increasing the number of CFTR molecules in the testing cell plasma membrane.
This method was initially developed for bench top plate readers (Galietta et al., 2001), and was adapted to the HTS format (Sui et al. Assay Drug Dev. Technol. 2010).
Fisher Rat Thyroid (FRT) cells stably expressing both human AF508-CFTR and a halide-sensitive yellow fluorescent protein (YFP—H148Q/1152L 25, 22) (Galietta et al., Am. J. Physiol Cell Physiol 281(5), C1734, 2001) were cultured on plastic surface in Coon's modified Ham's F12 medium supplemented with FBS 10%, L-glutamine 2 mM, penicillin 100 U/mL, and streptomycin 100 μg/mL. G418 (0.75-1.0 mg/mL) and zeocin (3.2 ug/mL) were used for selection of FRT cells expressing ΔF508-CFTR and YFP. For primary screening, FRT cells were plated into 384-well black wall, transparent bottom microtiter plates (Costar; Corning Inc.) at a cell density of 20,000-40,000 per well. Test compound was applied to the cells at varying concentrations ranging from […] in either a 2-fold or 3-fold dilution series. Cells were incubated in a cell culture incubator at 37° C. with 5% CO2 for 24-26 h. Assay plates were washed with DPBS media (Thermo, cat# SH30028.02) to remove unbound cells and compound. Stimulation media (25 μL) containing 20 μM Forskolin & 30 μM P3 [6-(Ethyl-phenyl-sulfonyl)-4-oxo-1,4-dihydro-quinoline-3-carboxylic acid 2-methoxy-benzylamide] in Hams F-12 coon's modified media was added to the plate wells and incubated at room temperature for 60-120 min. 25 μL of HEPES-PBS-I buffer (10 mM HEPES, 1 mM MgCl2, 3 mM KCl, 1 mM CaCl2, 150 mM NaI) was then added and fluorescence quench curves (Excitation 500 nm/Emission 540 nm; exposure 136 ms) were immediately recorded on an FDSS-6000 plate reader (Hamamatsu). Quench rates were derived from least squares fitting of the data as described by Sui et al., (2010).
The following protocol is designed to selectively screen small molecule compounds for F508del CFTR potentiator activities in the HTS YFP flux assay. In this protocol, the cells are incubated at 27 C for 24 hours with homogeneously boosted dF508-CFTR expression in the cell membrane by the low temperature, washed with PBS, stimulated with forskolin, and read on a 384-well HTS plate reader, such as the Hamamatsu FDDD-6000.
as §1, with “dF508del-CFTR potentiators accelerate” for “dF508-CFTR corrector accelerates”, “increasing” for “increasing the number of”, “activities” for “molecules”
Fisher Rat Thyroid (FRT) cells stably expressing both human ΔF508-CFTR and a halide-sensitive yellow fluorescent protein (YFP-H148Q/I152L 25, 22) (Galietta et al., Am. J. Physiol Cell Physiol 281(5), C1734, 2001) were cultured on plastic surface in Coon's modified Ham's F12 medium supplemented with FBS 10%, L-glutamine 2 mM, penicillin 100 U/mL, and streptomycin 100 μg/mL. […]

T1 sequence (P13569 with tags, fused parts or gaps DEL508-508): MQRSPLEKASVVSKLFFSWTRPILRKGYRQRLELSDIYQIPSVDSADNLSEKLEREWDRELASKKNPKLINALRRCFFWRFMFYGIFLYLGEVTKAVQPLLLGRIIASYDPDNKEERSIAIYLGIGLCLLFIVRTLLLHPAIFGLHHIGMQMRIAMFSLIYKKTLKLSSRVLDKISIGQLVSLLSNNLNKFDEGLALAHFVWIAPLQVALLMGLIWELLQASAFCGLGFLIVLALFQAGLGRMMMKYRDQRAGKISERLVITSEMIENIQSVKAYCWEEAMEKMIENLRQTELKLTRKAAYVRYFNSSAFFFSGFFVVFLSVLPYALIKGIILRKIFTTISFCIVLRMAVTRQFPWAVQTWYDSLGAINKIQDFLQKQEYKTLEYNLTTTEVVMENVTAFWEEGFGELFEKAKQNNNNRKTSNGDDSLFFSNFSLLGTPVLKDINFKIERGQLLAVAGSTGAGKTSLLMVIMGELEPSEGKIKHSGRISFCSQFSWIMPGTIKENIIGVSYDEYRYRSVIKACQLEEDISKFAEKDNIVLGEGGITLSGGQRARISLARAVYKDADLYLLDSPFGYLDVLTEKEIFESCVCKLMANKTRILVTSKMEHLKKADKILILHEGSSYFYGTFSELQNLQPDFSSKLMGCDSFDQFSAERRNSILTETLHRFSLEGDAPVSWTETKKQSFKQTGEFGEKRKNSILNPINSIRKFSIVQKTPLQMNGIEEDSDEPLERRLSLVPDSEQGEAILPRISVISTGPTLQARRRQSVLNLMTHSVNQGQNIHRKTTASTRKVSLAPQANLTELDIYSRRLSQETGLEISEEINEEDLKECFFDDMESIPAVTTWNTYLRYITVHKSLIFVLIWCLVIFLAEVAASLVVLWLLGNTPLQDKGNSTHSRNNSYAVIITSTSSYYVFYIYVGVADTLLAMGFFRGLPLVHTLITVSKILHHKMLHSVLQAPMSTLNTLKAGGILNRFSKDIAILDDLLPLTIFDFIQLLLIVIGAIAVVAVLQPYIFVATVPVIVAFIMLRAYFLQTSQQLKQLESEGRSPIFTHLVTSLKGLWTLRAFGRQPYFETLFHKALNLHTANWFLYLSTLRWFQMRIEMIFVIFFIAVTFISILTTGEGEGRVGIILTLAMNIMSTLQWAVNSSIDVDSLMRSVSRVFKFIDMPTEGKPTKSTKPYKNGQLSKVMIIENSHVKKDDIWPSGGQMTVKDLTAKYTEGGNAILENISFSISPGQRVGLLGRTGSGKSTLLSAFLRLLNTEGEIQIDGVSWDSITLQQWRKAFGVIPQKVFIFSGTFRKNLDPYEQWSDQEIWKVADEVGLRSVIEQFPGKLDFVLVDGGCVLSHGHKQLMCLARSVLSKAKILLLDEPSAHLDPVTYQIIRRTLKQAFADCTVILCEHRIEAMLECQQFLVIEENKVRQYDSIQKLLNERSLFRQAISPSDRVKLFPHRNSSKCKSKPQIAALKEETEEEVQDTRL

% Efficacy (Emax normalized to the positive control)	Compound
+ (a range of 30%-10%)	3-(3-(2-(ethyl(4-ethylphenyl)amino)-2-oxoethyl)-4-oxo-3,4-dihydrophthalazin-1-yl)benzamide [Example 10]
++ (a range of 80%-30%)	2-(4-(3-cyanophenyl)-1-oxophthalazin-2(1H)-yl)-N-ethyl-N-(4-ethylphenyl)acetamide [Example 16]
+ (a range of 30%-10%)	N-ethyl-N-(4-ethylphenyl)-2-(4-(4-(methylsulfonyl)phenyl)-1-oxophthalazin-2(1H)-yl)acetamide [Example 15]

Same assay, conditions: FRT cells expressing human ΔF508-CFTR and YFP; forskolin stimulated

Compound	EC50
3-(3-(2-(ethyl(4-ethylphenyl)amino)-2-oxoethyl)-4-oxo-3,4-dihydrophthalazin-1-yl)benzamide [Example 10]	> 20 µM
CCN(C(=O)Cn1nc(C(=O)N(C)c2ccccn2)c2ccccc2c1=O)c1ccc2c(c1)OC(F)(F)O2 [Example 81, 3-(2-((2,2-difluorobenzo[d][1,3]dioxol-5-yl)(ethyl)amino)-2-oxoethyl)-N-methyl-4-oxo-N-(pyridin-2-yl)-3,4-dihydrophthalazine-1-carboxamide]	10 to 20 µM
CCc1ccc(N(CC)C(=O)Cn2nc(-c3ccncc3)c3ccccc3c2=O)cc1 [Example 4, N-ethyl-N-(4-ethylphenyl)-2-(1-oxo-4-(pyridin-4-yl)phthalazin-2(1H)-yl)acetamide]	> 20 µM
N-ethyl-N-(4-ethylphenyl)-2-(4-(4-(methylsulfonyl)phenyl)-1-oxophthalazin-2(1H)-yl)acetamide [Example 15]	> 20 µM
CCN(C(=O)Cn1ncc2c(c1=O)c1ccccc1n2Cc1ccncc1)c1ccc2c(c1)OC(F)(F)O2 [Example 97, N-(2,2-difluorobenzo[d] [1,3]dioxol-5-yl)-N-ethyl-2-(1-oxo-5-(pyridin-4-ylmethyl)-1H-pyridazino[4,5-b]indol-2(5H)-yl)acetamide]	< 10 µM
CCN(C(=O)Cn1nc(C(=O)N(CC)c2cccc(Cl)c2)c2c3ccccc3n(C)c2c1=O)c1ccc2c(c1)OC(F)(F)O2 [Example 141, N-(3-chlorophenyl)-3-(2-((2,2-difluorobenzo[d][1,3]dioxol-5-yl)(ethyl)amino)-2-oxoethyl)-N-ethyl-5-methyl-4-oxo-4,5-dihydro-3H-pyridazino[4,5-b]indole-1-carboxamide]	< 10 µM
CCN(C(=O)c1nn(-c2ccccc2)c(=O)c2c1c1ccccc1n2C)c1ccncc1 [Example 109, N-ethyl-5-methyl-4-oxo-3-phenyl-N-(pyridin-4-yl)-4,5-dihydro-3H-pyridazino[4,5-b]indole-1-carboxamide]	< 10 µM
CCN(C(=O)Cn1nc(Cc2cccnc2)c2cc(C)ccc2c1=O)c1ccc2c(c1)OC(F)(F)O2 [Example 46, N-(2,2-difluorobenzo[d][1,3]dioxol-5-yl)-N-ethyl-2-(6-methyl-1-oxo-4-(pyridin-3-ylmethyl)phthalazin-2(1H)-yl)acetamide]	< 10 µM
CCN(C(=O)c1nn(-c2ncccn2)c(=O)c2c1c1ccccc1n2C)c1ccccc1 [Example 122, N-ethyl-5-methyl-4-oxo-N-phenyl-3-(pyrimidin-2-yl)-4,5-dihydro-3H-pyridazino[4,5-b]indole-1-carboxamide]	10 to 20 µM
CCN(C(=O)Cn1nc(Cc2cccnc2)c2c3ccccc3n(C)c2c1=O)c1ccc2c(c1)OC(F)(F)O2 [Example 157, N-(2,2-difluorobenzo[d][1,3]dioxol-5-yl)-N-ethyl-2-(5-methyl-4-oxo-1-(pyridin-3-ylmethyl)-4,5-dihydro-3H-pyridazino[4,5-b]indol-3-yl)acetamide]	> 20 µM
CCN(C(=O)Cn1ncc2c(c1=O)c1ccccc1n2CCC#N)c1ccc2c(c1)OC(F)(F)O2 [Example 92, 2-(5-(2-cyanoethyl)-1-oxo-1H-pyridazino[4,5-b]indol-2(5H)-yl)-N-(2,2-difluorobenzo[d][1,3]dioxol-5-yl)-N-ethylacetamide]	< 10 µM
CCN(C(=O)c1nn(-c2ccc(C)cc2)c(=O)c2c1c1ccccc1n2C)c1ccccn1 [Example 107, N-ethyl-5-methyl-4-oxo-N-(pyridin-2-yl)-3-(p-tolyl)-4,5-dihydro-3H-pyridazino[4,5-b]indole-1-carboxamide]	< 10 µM
CCN(C(=O)Cn1nc(Cc2cccnc2)c2ccc(OC)cc2c1=O)c1ccc2c(c1)OC(F)(F)O2 [Example 52, N-(2,2-difluorobenzo[d][1,3]dioxol-5-yl)-N-ethyl-2-(7-methoxy-1-oxo-4-(pyridin-3-ylmethyl)phthalazin-2(1H)-yl)acetamide]	< 10 µM

Second part, the compound after the results:

EC50	Compound
< 10 µM	CCc1ccc(N(CC)C(=O)Cn2nc(Cc3cccnc3)c3cc(OC)c(OC)cc3c2=O)cc1 [Example 32, 2-(6,7-dimethoxy-1-oxo-4-(pyridin-3-ylmethyl)phthalazin-2(1H)-yl)-N-ethyl-N-(4-ethylphenyl)acetamide]
< 10 µM	CCN(C(=O)Cn1nc(-c2cccc(C#N)c2)c2ccc(OC)cc2c1=O)c1ccc(OC(F)F)cc1 [Example 67, 2-(4-(3-cyanophenyl)-7-methoxy-1-oxophthalazin-2(1H)-yl)-N-(4-(difluoromethoxy)phenyl)-N-ethylacetamide]
< 10 µM	CCN(C(=O)Cn1ncc2c(c1=O)c1ccccc1n2CCCOC)c1ccc2c(c1)OC(F)(F)O2 [Example 91, N-(2,2-difluorobenzo[d] [1,3]dioxol-5-yl)-N-ethyl-2-(5-(3-methoxypropyl)-1-oxo-1H-pyridazino[4,5-b]indol-2(5H)-yl)acetamide]
< 10 µM	CCN(C(=O)Cn1nc(Cc2cccnc2)c2cccc(C)c2c1=O)c1ccc2c(c1)OC(F)(F)O2 [Example 47, N-(2,2-difluorobenzo[d][1,3]dioxol-5-yl)-N-ethyl-2-(8-methyl-1-oxo-4-(pyridin-3-ylmethyl)phthalazin-2(1H)-yl)acetamide]
< 10 µM	2-(4-(3-cyanophenyl)-1-oxophthalazin-2(1H)-yl)-N-ethyl-N-(4-ethylphenyl)acetamide [Example 16]
< 10 µM	CCN(C(=O)Cn1nc(Cc2cccnc2)c2cccc(OC3CCCCC3)c2c1=O)c1ccc2c(c1)OC(F)(F)O2 [Example 59, 2-(8-(cyclohexyloxy)-1-oxo-4-(pyridin-3-ylmethyl)phthalazin-2(1H)-yl)-N-(2,2-difluorobenzo[d][1,3]dioxol-5-yl)-N-ethylacetamide]
< 10 µM	CCN(C(=O)c1nn(-c2ccccc2F)c(=O)c2c1c1ccccc1n2C)c1ccccc1 [Example 125, N-ethyl-3-(2-fluorophenyl)-5-methyl-4-oxo-N-phenyl-4,5-dihydro-3H-pyridazino[4,5-b]indole-1-carboxamide]
< 10 µM	COc1ccc2c(-c3ccc(S(N)(=O)=O)cc3)nn(CC(=O)N(c3ccc4c(c3)OC(F)(F)O4)C3CC3)c(=O)c2c1 [Example 71, N-cyclopropyl-N-(2,2-difluorobenzo[d][1,3]dioxol-5-yl)-2-(7-methoxy-1-oxo-4-(4-sulfamoylphenyl)phthalazin-2(1H)-yl)acetamide]
< 10 µM	CCc1ccc(N(CC)C(=O)Cn2nc(Cc3cccnc3)c3cc(OC)ccc3c2=O)cc1 [Example 36, N-ethyl-N-(4-ethylphenyl)-2-(6-methoxy-1-oxo-4-(pyridin-3-ylmethyl)phthalazin-2(1H)-yl)acetamide]
< 10 µM	CCN(CC)C(=O)c1nn(CC(=O)N(CC)c2ccc3c(c2)OC(F)(F)O3)c(=O)c2c1c1ccccc1n2C [Example 145, 3-(2-((2,2-difluorobenzo[d][1,3]dioxol-5-yl)(ethyl)amino)-2-oxoethyl)-N,N-diethyl-5-methyl-4-oxo-4,5-dihydro-3H-pyridazino[4,5-b] indole-1-carboxamide]
< 10 µM	Cc1ccc(-n2nc(C(=O)N3CCCc4ccccc43)c3c4ccccc4n(C)c3c2=O)cc1 [Example 110, 5-methyl-1-(1,2,3,4-tetrahydroquinoline-1-carbonyl)-3-(p-tolyl)-3H-pyridazino[4,5-b]indol-4(5H)-one]
